Laboratory results reported in US11370769B2, “TRPC5 inhibitors and methods of using same” (BOARD OF REGENTS OF THE UNIVERSITY OF NEBRASKA, priority 2017, dated 2022).

Assays:
podocytes = assay: ROS assay in wild-type podocytes treated with AngII; format: cell-based, mouse; details: WT podocytes, AngII 10 μM, 30 μM compound, 3 hours
Procedure: Podocyte culture and viral transduction: Immortalized mouse podocytes were cultured as previously described (10, 11). Podocyte viral transduction was performed using lentivirus as previously described (10, 11). Briefly, lentivirus production was carried out in HEK293T cells at 60% confluence, and viral particles were collected two days after transfection and purified by centrifugation at 1,000 rcf for 5 min. Purified lentivirus was frozen at −80° C. until further use. Podocytes were transduced with lentivirus after 7 days of differentiation, and assays were performed 5 days after viral transduction.
ROS and cell viability assays: For ROS experiment in FIG. 4A, mature podocytes were cultured as previously described. Cells were incubated with CellRox Deep Red reagent (ThermoFisher) for 30 min at 37° C. Then cells were treated with DMSO, 10 μM angiotensin II, 10 μM angiotensin II with 30 μM AC1903, or 10 μM angiotensin II with 30 μM N-acetyl-L-cysteine (NAC) for 3 hours at 37° C. Cells were washed with PBS twice and fluorescence images were observed using Olympus IX71 microscopy. Fluorescence intensities were then analyzed using ImageJ software.

kinase = assay: standard kinase profiling assays; format: biochemical
TRPC4 = target: T1, TRPC4 (Homo sapiens, UniProt Q9UBN4); assay: HEK293 whole-cell patch clamp recording, TRPC4 inhibition assay; format: cell-based; details: 30 μM, HEK cells expressing TRPC4, CCh 100 μM
T1 construct: expressed in transfected cells; host or cells: HEK293
T1 sequence (Q9UBN4 1-977): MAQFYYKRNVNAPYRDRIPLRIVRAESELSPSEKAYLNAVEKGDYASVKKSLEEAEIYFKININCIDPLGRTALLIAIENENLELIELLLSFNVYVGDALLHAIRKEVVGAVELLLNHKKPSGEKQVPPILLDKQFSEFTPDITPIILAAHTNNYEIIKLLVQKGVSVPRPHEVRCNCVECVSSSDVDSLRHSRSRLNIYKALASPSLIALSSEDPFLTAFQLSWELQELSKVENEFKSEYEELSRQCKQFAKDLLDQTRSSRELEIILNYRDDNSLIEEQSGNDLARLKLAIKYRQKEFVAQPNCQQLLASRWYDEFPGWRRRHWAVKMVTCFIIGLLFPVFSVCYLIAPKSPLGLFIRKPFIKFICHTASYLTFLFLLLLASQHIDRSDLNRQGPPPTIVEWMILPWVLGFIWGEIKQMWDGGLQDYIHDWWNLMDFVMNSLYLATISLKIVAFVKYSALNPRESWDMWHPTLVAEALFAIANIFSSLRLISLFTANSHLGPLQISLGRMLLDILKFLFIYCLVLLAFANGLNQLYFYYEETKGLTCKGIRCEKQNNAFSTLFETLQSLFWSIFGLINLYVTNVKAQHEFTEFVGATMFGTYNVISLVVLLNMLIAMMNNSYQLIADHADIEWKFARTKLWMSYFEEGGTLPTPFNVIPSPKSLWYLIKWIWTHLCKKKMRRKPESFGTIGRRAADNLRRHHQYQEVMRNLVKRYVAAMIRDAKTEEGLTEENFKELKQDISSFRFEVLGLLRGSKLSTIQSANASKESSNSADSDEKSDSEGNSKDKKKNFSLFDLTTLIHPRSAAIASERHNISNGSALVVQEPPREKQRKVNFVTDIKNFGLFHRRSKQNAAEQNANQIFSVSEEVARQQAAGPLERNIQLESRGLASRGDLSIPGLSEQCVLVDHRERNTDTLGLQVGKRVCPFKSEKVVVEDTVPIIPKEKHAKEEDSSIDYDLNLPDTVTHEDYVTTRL
Procedure: TRPC4, TRPC5, and TRPC6 inhibition assay: HEK293 whole-cell recordings Whole-cell patch clamp recording was performed 16 h after transfection. The bath solution contained (in mM): 140 NaCl, 5 KCl, 10 HEPES, 2 MgCl2, 2 CaCl2, 10 glucose with pH7.4 adjusted with NaOH. The intracellular solution contained (in mM): 140 KCl, 5 EGTA, 10 HEPES, 2 MgCl2 with pH7.4 adjusted with KOH. The patch pipettes were made using a two-step-protocol (P-97, Sutter Instrument). The pipette resistance was maintained between 4 to 8 MΩ. Once the whole-cell configuration was achieved, cells were clamped at a holding potential of −60 mV, and given a 50 ms ramp stimulation from −100 mV to +100 mV in every 5 s. All currents were filtered at 2 KHz (Axopatch 200B amplifier, Axon Instruments, Union City, Calif.) and digitized at 10 KHz for whole-cell recordings using Axon pCLAMP 10.4. Data were then analyzed using Clampfit 10.4 (Molecular Devices).
HEK293 cell culture and transfection: Transfection of HEK293 cells was carried out using Plus reagent (Invitrogen) and Lipofectamine (Invitrogen) according to standard protocols. For heterologous expression of TRP channels in HEK293 cells, 1 μg of TRPC5-GFP, TRPC6-GFP or TRPC4-GFP plasmids were used to transfect HEK293 cells in a 3.5 cm petri dish where cells were allowed to grow to 80% confluence. Electrophysiology was carried out after 16 h incubation.

For `c1ccc(Cn2c(NCc3ccco3)nc3ccccc32)cc1` [AC1903], the “AngII-induced ROS” value (podocytes) was “blocked”, the “off-target effects in kinase profiling” value (kinase) was “not found to have any off-target effects” and the “block of carbachol (CCh)-induced TRPC4 current” value (TRPC4) was “failed to block”.
